{"source": "paper PMC10339703", "about": "(Clinical and Translational Science, 2023)", "origin": "cited, not measured here", "key": {"patients with IPF [1]": {"tested_on": "patients with IPF", "settings": "most common side effects; cited from earlier work"}, "patients with IPF [2]": {"tested_on": "patients with IPF", "settings": "commonly reported adverse effects; cited from earlier work"}}}
{"smiles": "Cc1ccc(=O)n(-c2ccccc2)c1", "note": "[Pirfenidone]", "values": [{"measurement": "rash, incidence", "setting": "patients with IPF [1]", "result": 30, "unit": "%"}]}
{"smiles": "COC(=O)c1ccc2c(c1)NC(=O)/C2=C(\\Nc1ccc(N(C)C(=O)CN2CCN(C)CC2)cc1)c1ccccc1", "note": "[Nintedanib]", "values": [{"measurement": "diarrhea, incidence", "setting": "patients with IPF [2]", "result": 62, "unit": "%"}, {"measurement": "elevation in liver function tests, incidence", "setting": "patients with IPF [2]", "result": 14, "unit": "%"}]}
